In this assay the test system is 755483-174-R-J1-PDC complex spheroid growth, percent test/control. The experiment in a line: Anticancer human tumor 755483-174-R-J1-PDC patient-derived rhabdomyosarcoma cell line growth inhibition [Asc]. To be noted: for viability, T/C: stronger effect = lower value. The protocol:
Multicellular complex tumor spheroid response to apoptosis pathway targeting inhibitors Alrizomadlin, Pelcitoclax, and Dasminapant in combination with a variety of drugs and investigational agents in selected tumor cell lines
The MDM2 inhibitor alrizomadlin, the Bcl-2/Bcl-xL inhibitor pelcitoclax, and the IAPs inhibitor dasminapant were evaluated both individually and in combination with standard of care and investigational anticancer small molecules within a complex spheroid model of solid tumors. . Complex spheroids include a stromal component modeled by human endothelial cells (HUVEC) and fibroblasts modeled by human mesenchymal stem cells (MSCs). The concentration ranges selected for each drug and investigational agent were based upon clinically achievable concentrations if the clinical Cmax of the agent was known.
Compounds. The drugs and investigational agents: alrizomadlin (APG-115; NSC831270), pelcitoclax (APG-1252; NSC835773), dasminapant (APG-1387;NSC834197), TAK-243 (NSC785004), copanlisib (NSC809693), olaparib (NSC753686), talazoparib (NSC767125), cobimetinib (NSC 768068), eltanexor (KPT-8602, NSC 794443), abemaciclib (NSC 768073), sotorasib (NSC818433), adagrasib (NSC 831453), MRTX-1133 (NSC 836407), Iadademestat (ORY1001, NSC 806812), and RMC-4630 (NSC839698), were obtained from the NCI Developmental Therapeutics Program Chemical Repository. The FDA-approved anticancer drug set is available from the Developmental Therapeutics Program at https://dtp.cancer.gov/organization/dscb/obtaining/available plates.htm. […] The stock solutions were prepared in dimethyl sulfoxide (DMSO, Sigma-Aldrich, St. Louis, MO, cat. D2650) at 800-fold the tested concentration and stored at -70 degrees C prior to their use. All drugs and investigational agents were tested over a range starting from a high concentration at or near the clinical Cmax and decreasing in half-log increments. If the clinical Cmax for an agent had not been determined, the highest concentration tested was 10 microM.
The patient-derived cancer (PDC) cell lines include five colon adenocarcinomas: 186277-243-T-J2-PDC, 616215-338-R-J1-PDC, 439559-082-T-J2-PDC, 463943-066-T-J2-PDC, and 519858-162-T-J1-PDC; three pancreatic carcinomas: 323965-272-R-J2-PDC, 521955-158-R6-J3-PDC, and 521955-158-R2-J5-PDC; two uterine sarcomas: 327498-152-R-J2-PDC and 993429-296-R-J1-PDC; two rhabdomyosarcomas: 755483-174-R-J1-PDC and 772245-204-R-J1-PDC; two soft tissue sarcomas: 126254-015-R-J1-PDC and 494315-158-R-J1-PDC; two malignant fibrous histiocytomas: 317291-083-R-J1-PDC and 596521-263-R-J1-PDC; two breast carcinomas: 171881-019-R-J1-PDC and 885512-296-R-J2-PDC; and one ovarian carcinoma: 6556581-035-R-J-PDC were obtained from the NCI PDMR, (https://pdmr.cancer.gov). The established cell lines HSSY-2 synovial sarcoma (RRID:CVCL 8719), SYO-1 synovial sarcoma (RRID:CVCL_7146), MPNST malignant peripheral neural sheath tumor were obtained from the Sloan Kettering Institute. The following established cell lines were purchased from the American Type Culture Collection (ATCC, Manassas, VA), Sor the received from the NCI repository:, PANC-1 pancreatic carcinoma (CRL-1469, RRID:CVCL_0480), OVCAR-5 ovarian carcinoma (RRID:CVCL_1628), OVCAR-8 ovarian carcinoma (RRID:CVCL_1629), , MCF-7 breast carcinoma (CRL-12584, RRID:CVCL_0031), MDA-MB-231 breast carcinoma (CRL-12532, RRID:CVCL_0062), NCI-H1876 small cell lung carcinoma (CRL-5902, RRID:CVCL_1503), NCI-H510A small cell lung carcinoma (HTB-184, RRID:CVCL_1565), NCI-H1417 (CRL-5869, RRID:CVCL_1469), and NCI-H196 small cell lung carcinoma (CRL-5823, RRID:CVCL_1509). Dr. Peter Houghton (Greehey Children's Cancer Research Institute, University of Texas Health Science Center, San Antonio, TX) provided Rh-18 rhabdomyosarcoma (RRID:CVCL_1659). Pooled donor human umbilical vein endothelial cells (HUVEC, Lonza, cat. CC-2519) and human mesenchymal stem cells (hMSC, Lonza, cat. PT-2501) were purchased from Lonza (Walkersville, MD).
Cell Culture. […]

Values joined by “and” are separate entries in the source; they are usually repeats but may differ in a detail not shown here. Equal values may be shown once.
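Further: spheroids exposed to compounds for seven days before readout.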

A word on the viability, T/C: it is the result in the treated group divided by that in the control group, in per cent. One may read the IC50 as the point on the concentration scale where inhibition reaches its midpoint. For the compound `C#Cc1c(F)ccc2cc(O)cc(-c3ncc4c(N5CC6CCC(C5)N6)nc(OCC56CCCN5CC(F)C6)nc4c3F)c12` (centres undefined), the viability, T/C is, setting by setting: (compound 0.0316 µM) 97.7% and 125% and 101%; (compound 0.1 µM) 114% and 91.6% and 119%; (compound 0.316 µM) 92.6% and 113% and 90.3%; (compound 1 µM) 117% and 100% and 127%; (compound 3.16 µM) 85.7% and 76.6% and 92.3%; (compound 10 µM) 31.7% and 34.9% and 58.8%. Further, the 50% inhibitory concentration (IC50) (curve of compound) was 6.77 µM and 6.63 µM and > 10 µM.

As for `C=C(F)C(=O)N1CCN(c2nc(OCC3CCCN3C)nc3c2CCN(c2cccc4cccc(Cl)c24)C3)CC1CC#N` (centres undefined), the viability, T/C is, setting by setting: (compound 0.0316 µM) 95.7% and 76.6% and 114%; (compound 0.1 µM) 91% and 57% and 109%; (compound 0.316 µM) 95% and 99.3% and 78.9%; (compound 1 µM) 80.1% and 74.6% and 88.8%; (compound 3.16 µM) 21.4% and 23.7% and 19.3%; (compound 10 µM) 0.14% and 0.16% and 0.18%. The half-inhibitory concentration (IC50) (curve of compound) was 1.81 µM and 1.76 µM and 1.88 µM.

In the case of `C=CC(=O)N1CCN(c2nc(=O)n(-c3c(C)ccnc3C(C)C)c3nc(-c4c(O)cccc4F)c(F)cc23)C(C)C1` (centres undefined), the viability, T/C (compound 0.0316 µM) is 99.7% and 81.3% and 102%; the viability, T/C (compound 0.1 µM) is 98.4% and 72.6% and 109%; the viability, T/C (compound 0.316 µM) was 115% and 63% and 100%; the viability, T/C (compound 1 µM) is 94.8% and 72.7% and 121%; the viability, T/C (compound 3.16 µM) is 117% and 78.5% and 88.8%; the viability, T/C (compound 10 µM) is 74.8% and 69.6% and 85.6%. For the setting “curve of compound”, the IC50 is over 10 µM.

As for `CCN1C(C(=O)NC23CCC(C(=O)O)(CC2)CC3)C(c2cccc(Cl)c2F)C2(C(=O)Nc3cc(Cl)ccc32)C12CCCCC2` (centres undefined), the viability, T/C (compound 0.00949 µM) is 92.3% and 75.3%. For the same compound, the IC50 reads like this: (compound alone, run of 09/27/2022) over 3 µM; (curve of compound) over 3 µM.

As for `CCN1CCN(Cc2ccc(Nc3ncc(F)c(-c4cc(F)c5nc(C)n(C(C)C)c5c4)n3)nc2)CC1`, the viability, T/C is, setting by setting: (compound 0.00316 µM) 112% and 99% and 77.5%; (compound 0.01 µM) 85.6% and 83.7% and 100%; (compound 0.0316 µM) 119% and 93.6% and 74.1%; (compound 0.1 µM) 120% and 83.7% and 118%; (compound 0.316 µM) 115% and 99.3% and 99.2%; (compound 1 µM) 113% and 132% and 99%. Further, where the note is “curve of compound”, the IC50 is over 1 µM.

On to `CNC(C)C(=O)NC1CN(S(=O)(=O)c2cccc(S(=O)(=O)N3CCC4CCC(C(=O)NC(c5ccccc5)c5ccccc5)N4C(=O)C(NC(=O)C(C)NC)C3)c2)CCC2CCC(C(=O)NC(c3ccccc3)c3ccccc3)N2C1=O` (centres undefined), for which the viability, T/C is, setting by setting: (compound 0.00316 µM) 48.1% and 88.5%; (compound 0.1 µM) 37.5% [middle of 15 runs]. Also, under “curve of compound”, the concentration for half-maximal inhibition (IC50) was < 0.00316 µM and 0.023 µM.

Consider `COc1c(OCCCN2CCOCC2)ccc2c3n(c(=NC(=O)c4cnc(N)nc4)nc12)CCN3`, for which the viability, T/C was 81.5% and 75.7% and 125% (compound 0.00316 µM); 68.4% and 71.7% and 105% (compound 0.01 µM); 48.4% and 58.9% and 88.5% (compound 0.0316 µM); 32.9% and 32.1% and 51.3% (compound 0.1 µM); 11.3% and 12% and 19.7% (compound 0.316 µM); 5.83% and 6.96% and 8.42% (compound 1 µM). In addition, the half-inhibitory concentration (IC50) (curve of compound) was 0.0313 µM and 0.0462 µM and 0.104 µM.

As for `Cc1c(S(C)(=O)=O)c(-c2cc(F)cc(N3CCN(c4ccc(NS(=O)(=O)c5ccc(NC(CCN6CCC(C(=O)OCCCP(=O)(O)O)CC6)CSc6ccccc6)c(S(=O)(=O)C(F)(F)F)c5)cc4)CC3)c2)c(-c2ccc(Cl)cc2)n1C(C)C` (centres undefined), for the setting “compound 10 µM”, the viability, T/C is 41.7% [middle of 14 runs].

With `Cc1nc(N2CCC3(CC2)COC(C)C3N)c(CO)nc1Sc1ccnc(N)c1Cl` (centres undefined), the viability, T/C was 92.6% and 79% and 106% (compound 0.00949 µM); 82.3% and 110% and 95.9% (compound 0.03 µM); 82.2% and 74.3% and 36.2% (compound 0.0949 µM); 47.3% and 50.9% and 53.9% (compound 0.3 µM); 31.6% and 34.4% and 28.9% (compound 0.949 µM); 22.1% and 20.2% and 18.8% (compound 3 µM). The concentration for half-maximal inhibition (IC50) (curve of compound) is 0.291 µM and 0.325 µM and 0.073 µM.

For the compound `Cn1ncnc1[C@H]1c2n[nH]c(=O)c3cc(F)cc(c23)N[C@@H]1c1ccc(F)cc1`, the viability, T/C by setting is: (compound 0.000316 µM) 88.4% and 89% and 81.2%; (compound 0.001 µM) 83.4% and 79.9% and 66.1%; (compound 0.00316 µM) 84.2% and 86.5% and 53.9%; (compound 0.01 µM) 74.4% and 58.5% and 52.2%; (compound 0.0316 µM) 50.1% and 45.9% and 31.2%; (compound 0.1 µM) 41.2% and 38.3% and 23.1%. The IC50 (curve of compound) was 0.0327 µM and 0.0181 µM and 0.00639 µM.

For `NC(=O)C(=Cn1cnc(-c2cc(C(F)(F)F)cc(C(F)(F)F)c2)n1)c1cncnc1`, the viability, T/C by setting is: (compound 0.000949 µM) 83.4% and 72.6% and 109%; (compound 0.003 µM) 79.3% and 74.5% and 76.7%; (compound 0.00949 µM) 31.9% and 25.1% and 35.4%; (compound 0.03 µM) 12.6% and 12.7% and 19.2%; (compound 0.0949 µM) 8.9% and 7.51% and 9.5%; (compound 0.3 µM) 9.16% and 4.1% and 26.1%. Also, where the note is “curve of compound”, the IC50 was 0.00611 µM and 0.00525 µM and 0.00623 µM.

With `NC1CCC(NC2CC2c2ccccc2)CC1` (centres undefined), the viability, T/C is 90.9% and 70.4% and 80.8% (compound 0.000316 µM); 80.2% and 77.2% and 82.2% (compound 0.001 µM); 77.8% and 102% and 61.7% (compound 0.00316 µM); 82.8% and 87.8% and 74.4% (compound 0.01 µM); 68.1% and 94.5% and 113% (compound 0.0316 µM); 79.2% and 83.4% and 66.6% (compound 0.1 µM). In addition, the half-maximal inhibitory concentration (IC50) (curve of compound) is over 0.1 µM.

Take `O=C(c1cc(Cc2n[nH]c(=O)c3ccccc23)ccc1F)N1CCN(C(=O)C2CC2)CC1`: the viability, T/C runs as follows: (compound 0.0316 µM) 81.5% and 67.3% and 77.6%; (compound 0.1 µM) 57.5% and 87% and 85.7%; (compound 0.316 µM) 70.2% and 82% and 67.8%; (compound 1 µM) 41.8% and 56.8% and 65.6%; (compound 3.16 µM) 32.3% and 51.1% and 43.3%; (compound 10 µM) 30.1% and 17.6% and 22.7%. The IC50 (curve of compound) is 0.713 µM and 2.73 µM and 2.21 µM.

Regarding `O=C(c1ccc(F)c(F)c1Nc1ccc(I)cc1F)N1CC(O)([C@@H]2CCCCN2)C1`, the viability, T/C (compound 0.00316 µM) was 109% and 82.3% and 101%; the viability, T/C (compound 0.01 µM) is 117% and 73.6% and 104%; the viability, T/C (compound 0.0316 µM) was 96.3% and 99.1% and 95.6%; the viability, T/C (compound 0.1 µM) is 91.4% and 70.1% and 93.1%; the viability, T/C (compound 0.316 µM) is 53.5% and 61.5% and 60.8%; the viability, T/C (compound 1 µM) was 18.9% and 14.9% and 13.3%. In addition, for the setting “curve of compound”, the IC50 is 0.369 µM and 0.409 µM and 0.413 µM.

The record behind these values is PubChem BioAssay AID1963434 (Molecular Pharmacology Branch, DTP, NCI, 2024).
